Measurements taken from US8203033B2, “Methods and compositions for providing tolerance to multiple herbicides” (Pioneer Hi-Bred International, Inc., priority 2005, dated 2012).

How the values were obtained:
[1] = tested on: non-transgenic control soybeans; assay: Postemergence herbicide spray of soybeans, visual injury; type: in vivo; details: 35 g/ha
Experimental: (§1) Young regenerated transgenic plants were sprayed with 1× glyphosate (1× rate of glyphosate is 1120 g/ha of glyphosate isopropylamine) to cull segregants. Four replications were performed for each treatment. Plants were then treated with various herbicides, including glyphosate and ALS-inhibitor herbicides.
(§2) Six soybean seeds from each variety to be assayed were planted 1 cm deep in 5.5 (13.97 cm) inch square plastic container of a synthetic growth medium. […] When possible, containers were thinned to two uniform plants. Non-transgenic lines were thinned to two uniform plants per container.
(§3) Results are expressed below in Table 11 as the mean of four replications.

GAT-HRA soybeans = assay: as above; type: in vivo; details: 35 g/ha
Experimental: as §1, §2, §3

[2] = tested on: Untransformed Coker 312 control plants; assay: Greenhouse over-the-top herbicide spray of cotton; type: in vivo, Gossypium hirsutum
Source text: (§4) Cotton (Gossypium hirsutum) Coker 312 was transformed with a GAT polynucleotide (gat 4621) together with an Hra polynucleotide (SEQ ID NO:86) both operably linked to strong, constitutive plant viral promoters. The promoter linked to gat4621 contains a duplicated portion of the Strawberry Vein Banding Virus transcript promoter (Wang et al. Virus Genes 20: 11-17, 2000; Genbank X97304). The Hra gene was driven by a duplicated portion of the Mirabilis Mosaic Caulimovirus full-length transcript promoter (U.S. Pat. No. 6,420,547; Dey and Maiti, Transgenics 3:61-70, 1999). The transformation procedure used Agrobacterium tumefaciens containing an expression cassette with the genes to be transferred and cotyledon explant derived callus with some capacity to undergo embryogenesis. The callus was exposed to Agrobacterium for 48-72 hours. The callus was then exposed to selection for transformed cells on 50-200 μg/l chlorosulfuron and/or 50-450 μM glyphosate in solid medium. Glyphosate can also be used in a concentration range of about 5 to about 450 μM. Selection was applied until somatic embryos formed, and selection was again applied at the embryo germination step, and optionally during rooting of plantlets. Over 450 GAT-HRA transformation events were produced using selection with both chlorsulfuron and glyphosate.
(§5) Transformed cotton plants were rooted and then transferred to soil for further growth. Plants were then subjected to herbicide spray treatments in a greenhouse. […] Untransformed Coker 312 control plants were dead 2 weeks after glyphosate application. […] Plants transformed with both GAT and HRA were further subjected to an “over the top” application of the sulfonylurea herbicide rimsulfuron at a rate of 16 g active ingredient/hectare. […] In further experiments 32 g ai/ha rimsulfuron were applied to the cotton.

[3] = tested on: GAT-HRA transgenic cotton plants; assay: Greenhouse over-the-top herbicide spray of cotton; type: in vivo, Gossypium hirsutum
Source text: as §4, §5

[4] = tested on: non-transformed GS3 embryos; assay: Glyphosate kill curve; type: cell-based, maize; details: about 40 days culture
Experimental: A glyphosate kill curve was established by testing non-transformed embryos response on media with different levels of glyphosate. GS3 embryos were isolated from an immature ear and placed onto media containing glyphosate at 0.0, 0.5, 1.0, and 2.0 mM. After about 40 days culture, the response of the embryos were observed and recorded. Similarly, infected GS3 embryos with the GAT construct were placed onto media containing glyphosate at 0.0, 0.5, 1.0, and 2.0 mM. After about 40 days culture, the response of the infected embryos were observed and recorded (FIG. 7).
Western or PCR analysis has confirmed that these resistant calli were transformed. Currently, GAT has performed consistently as an effective selectable marker with excellent transformation efficiency in both GS3 and introEF09B genotypes (FIG. 10 and Table 45).

[5] = tested on: Hairy Fleabane (Conyza bonariensis); assay: Glyphosate, metsulfuron-methyl and two additives on the control of hairy fleabane; type: in vivo; details: glyphosate on its own; 10-15 leaf stage
Experimental: This example included the same treatments as used in Example 11, except the treatments were carried out on a glyphosate sensitive biotype of Kleinskraalhans (Conyza bonariensis).

[6] = tested on: non-glyphosate resistant ryegrass (70-04); assay: Glyphosate, metsulfuron-methyl and two additives on the control of ryegrass; type: in vivo; details: 0.5 L ha^−1 glyphosate (SCAT)
Experimental: The example was conducted on non-glyphosate resistant ryegrass. As provided in Table 23, all treatments that included glyphosate [180 g a.i. L ha^−1 (0.5 L glyphosate (SCAT®))] plus metsulfuron-methyl (BRUSH-OFF®) (5 and 10 g ha^−1) gave 100% control of the ryegrass.

[7] = tested on: Heterozygous GAT-HRA corn; assay: Postemergence test of herbicides on corn (fresh weight, visual injury); type: in vivo; details: 3472 g ae/ha
[8] = tested on: parent elite stiff stalk inbred corn; assay: as above; type: in vivo; details: 3472 g ae/ha

SMILES: COC(=O)c1ccccc1S(=O)(=O)NC(=O)N(C)c1nc(C)nc(OC)n1 [Tribenuron-methyl, methyl 2-[[[[N-(4-methoxy-6-methyl-1,3,5-triazin-2-yl)-N-methylamino]carbonyl]-amino]sulfonyl]benzoate]
- effect on non-transgenic control soybeans [1]: killed
- damage of GAT- and HRA-containing transgenic soybeans (GAT-HRA soybeans): no significant damage

SMILES: O=C(O)CNCP(=O)(O)O [Glyphosate, N-phosphonomethylglycine]
- state of control plants after application ([2]; 1.5 lb acid equivalent per acre, 4-6 leaf stage, 2 weeks after application): dead
- GAT-HRA transgenic plants that showed no deleterious symptoms ([3]; 1.5 lb acid equivalent per acre, 4-6 leaf stage, 14 days after application): approximately 50%
- embryos that showed callus initiation ([4]; 0.5 mM glyphosate in medium): about half
- callus growth ([4]; 1.0 mM glyphosate in medium): very little callus growth
- callus growth ([4]; 2.0 mM glyphosate in medium): very little callus growth
- percentage printed with the plants killed [5]: 12%
- percentage printed with the plants that died [6]: 12%
- plants that eventually died [6]: 15 of the 16
- % Visual Injury [7]: 10%
- % Visual Injury [8]: 100%
- Fresh Weight ([8]; 2 weeks after treatment): 1.0 g

SMILES: CCS(=O)(=O)c1cccnc1S(=O)(=O)NC(=O)Nc1nc(OC)cc(OC)n1 [Rimsulfuron, N-[[(4,6-dimethoxy-2-pyrimidinyl)amino]carbonyl]-3-(ethylsulfonyl)-2-pyridinesulfonamide]
- damage of untransformed plants ([2]; 16 g active ingredient/hectare, in the absence of any glyphosate application): severe damage
- transgenic plants that showed no deleterious symptoms from the dual herbicide application ([3]; rimsulfuron 16 g active ingredient/hectare after glyphosate 1.5 lb ae/acre, 14 days after rimsulfuron, 28 days after glyphosate): approximately 35%
